The values below come from patent US10940218B2, “Treatment of meningiomas using phenylbenzothiazole, stilbene, biphenylalkyne, or pyridine derivatives” (MAYO FOUNDATION FOR MEDICAL EDUCATION AND RESEARCH, priority 2012, dated 2021).

The structures appear in SMILES notation.

In this assay the test system is normal adjacent tissues. The assay can be described thus: PiB PET/CT activity of normal adjacent tissues. The assay is classed as in vivo, human. An excerpt:
The radiologic interpretations of MRI, CT and FDG PET/CT scans from a population of 834 people who participated in the population-based Mayo Clinic Study of Aging (MCSA) from March 2006 through September 2011 were reviewed for the presence of tumors or other brain lesions. (See, Kantarci K, Lowe V, Przybelski S A, et al., “Magnetic resonance spectroscopy, {beta}-amyloid load, and cognition in a population-based sample of cognitively normal older adults”, Neurology 2011; 77:951-8; and Roberts R O, Geda Y E, Knopman D S, et al., “The Mayo Clinic Study of Aging: design and sampling, participation, baseline measures and sample characteristics”, Neuroepidemiology 2008; 30:58-69.) Participants were randomly selected for recruitment in the MCSA from a population of older adult residents of Olmsted County, Minn., USA. Those with neurological, psychological or systemic illnesses were not excluded. Individuals with dementia, or those unable to be imaged for medical reasons were excluded. All patients were imaged with C11-PiB PET/CT, F18-FDG PET/CT and non-contrast MRI at least once as part of the study. Any additional patient imaging and clinical history was then reviewed.
PET imaging was performed as part of the Mayo Clinic Study of Aging as previously described. (See Kantarci K, Lowe V, Przybelski S A, et al., “Magnetic resonance spectroscopy, {beta}-amyloid load, and cognition in a population-based sample of cognitively normal older adults”, Neurology 2011; 77:951-8.) PiB PET/CT, then FDG PET/CT were performed on the same day. PET/CT imaging was performed on a 690XT or DRX PET/CT tomograph (GE Healthcare). The PET sinograms were reconstructed using a fully-3D OSEM algorithm into a 30 cm field of view; the pixel size was 1.2 mm and the slice thickness was 3.27 mm (DRX) or 1.96 mm (690XT). CT imaging was obtained immediately prior to PET acquisition and used for attenuation correction. Cerebral PiB retention, a marker of amyloid deposition, was measured as previously described. (See Kantarci K, Lowe V, Przybelski S A, et al. “Magnetic resonance spectroscopy, {beta}-amyloid load, and cognition in a population-based sample of cognitively normal older adults”, Neurology 2011; 77:951-8.)

Turning to `[11CH3]Nc1ccc(-c2nc3ccc(O)cc3s2)cc1` [PiB, [N-Methyl-^11C]2-(4′-methylaminophenyl)-6-hydroxybenzothiazole], the “average SUVmax” value by setting is: (nearby normal bone) 0.6; (nearby normal grey matter) 1.1. Where the note is “nearby normal white matter, FIG. 5”, the PiB activity result is listed as “high level of nonspecific PiB activity”. In addition, the “average background SUVmax” value (surrounding cerebrospinal fluid) was 0.2.
